Test in all cases: NCI tumour cell line growth inhibition, 48 h
Test [1] relates to NCI-H23.
Test [2] deals with OVCAR-3.
For test [3], the system named is DU-145.
The subject of test [4] is Malme-3M.
Test [5] concerns UACC-257.
Test [6] relates to U-251.
Test [7] deals with MDA-MB-231.
Test [8] deals with CAKI-1.
Test [9] concerns OVCAR-8.
Test [10] relates to SK-OV-3.
Test [11] relates to NCI/ADR-RES.
Test [12] deals with ACHN.
Test [13] relates to A498.
The test system of test [14] is SN12C.
Test [15] deals with PC-3.
Test [16] deals with NCI-H460.
The subject of test [17] is IGROV-1.
Test [18] has as its system HL-60.
Test [19] concerns MDA-N.
For test [20], the system named is MCF7.

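Assay format: 96-well plates, 48-hour exposure. At the GI50, growth is halved.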 Active and inactive are the calls of the source. Rule as the data show it: active = GI50 up to about 1.1 µM and inactive = higher.

`O=C(O)CCSCc1ccccc1`: the GI50 in test [1], in test [2], in test [3], in test [4], in test [5] and in test [6] was > 100 µM (inactive) throughout. Moreover, the GI50 in [7], in test [8], in [9], in test [10], in test [11] and in test [12] was > 100 µM (inactive) throughout. Besides, the GI50 in test [13], in test [14], in test [15], in [16], in test [17] and in test [18] was > 100 µM (inactive) in each case. Also, the GI50 in [19] and in test [20] was > 100 µM (inactive) throughout.

For the molecule `O=C(O)C1C(C(=O)O)C2C(=O)C=CC1N2Cc1ccccc1` (stereo not given), the GI50 is 2.27 µM (inactive) in test [1]; 2.87 µM (inactive) in test [2]; 1.99 µM (inactive) in [3]; 3.68 µM (inactive) in test [4]; 2.62 µM (inactive) in [5]; 3.52 µM (inactive) in [6]. The GI50 in test [7] was 3.16 µM (inactive); in [8] it was 3.94 µM (inactive); in test [9], 4.16 µM (inactive); in [10], 5.35 µM (inactive); in [11], 2.3 µM (inactive); in [12], 4.18 µM (inactive). The GI50 in [13] is 20.3 µM (inactive); in [14], 1.84 µM (inactive); in [15], 5.58 µM (inactive); in [16], 1.98 µM (inactive); in [17], 6.5 µM (inactive); in test [18] it was 1.77 µM (inactive). In addition, the figures for the GI50 in test [19] and in test [20] were 2.56 µM (inactive) and 4.63 µM (inactive), respectively.

Turning to `O=C(/C=C/c1cc2ccccc2o1)N1CCN(c2ccccn2)CC1`, the GI50 is > 100 µM (inactive) in test [1]; 62.7 µM (inactive) in [2]; > 100 µM (inactive) in test [3]; 79.6 µM (inactive) in test [4]; > 100 µM (inactive) in test [5]; > 100 µM (inactive) in test [6]. The GI50 in test [7] is 90.2 µM (inactive); in test [8], > 100 µM (inactive); in test [9] it was > 100 µM (inactive); in test [10], > 100 µM (inactive); in test [11] it was 60.7 µM (inactive); in test [13], > 100 µM (inactive). The GI50 was > 100 µM (inactive) in test [14]; 50.4 µM (inactive) in test [15]; 91.6 µM (inactive) in [16]; 84.1 µM (inactive) in test [17]; 40.7 µM (inactive) in test [18]; > 100 µM (inactive) in test [19]. In addition, the GI50 in test [20] is 57.5 µM (inactive).

Regarding `COc1cc2c(c(OC)c1OC)-c1ccc(=O)c(O)cc1[C@@H](NC(C)=O)CC2` [COLCHICEINE], the GI50 in test [1] is 10.6 µM (inactive); in test [2] it was 29.6 µM (inactive); in [3], 27.6 µM (inactive); in [5], 21.2 µM (inactive); in [6], 15.7 µM (inactive); in test [7] it was 15.4 µM (inactive). The GI50 in [8] is 12.6 µM (inactive); in [9] it was 13.3 µM (inactive); in [10], 40.5 µM (inactive); in test [11] it was 6.98 µM (inactive); in test [12] it was 18.1 µM (inactive); in [13], 18.4 µM (inactive). Besides, the GI50 is 16.8 µM (inactive) in test [14]; 17.8 µM (inactive) in test [15]; 12.3 µM (inactive) in test [16]; 26.3 µM (inactive) in test [17]; 4.99 µM (inactive) in [18]; 16.9 µM (inactive) in [19]. In addition, the GI50 in test [20] was 17 µM (inactive).

With `O=C(CCc1cc(O)ccc1O)OCCc1ccccc1`, the GI50 is 32.7 µM (inactive) in [1]; 19.9 µM (inactive) in [3]; 12.6 µM (inactive) in [4]; 12.4 µM (inactive) in [5]; 13.6 µM (inactive) in test [6]; 15.6 µM (inactive) in test [7]. Moreover, the GI50 was 7.66 µM (inactive) in test [8]; 12.7 µM (inactive) in test [9]; > 100 µM (inactive) in [10]; 19.1 µM (inactive) in test [11]; 4.33 µM (inactive) in [12]; > 100 µM (inactive) in test [13]. Further, the GI50 in [14] was 16.8 µM (inactive); in test [15] it was 4.91 µM (inactive); in [16], 44.8 µM (inactive); in [17] it was 12.7 µM (inactive); in [18] it was 0.718 µM (active); in test [19] it was 12.7 µM (inactive). In addition, the GI50 in test [20] is 15.8 µM (inactive).

On to `C#CC(O)/C=C/C(O)CCCC(O)CC#CC(O)C#CC(O)CCCC(O)/C=C/CCCCCC(=O)CCCCCCCCCCCCCC(O)C(O)C#CC(=O)O` (stereo not given), for which the GI50 in test [1] is > 50 µM (inactive); in test [3], > 50 µM (inactive); in test [4] it was > 50 µM (inactive); in [5], > 50 µM (inactive); in test [6] it was > 50 µM (inactive); in test [7], 12.1 µM (inactive). The GI50 in [8], in test [9], in [10], in [11], in test [12] and in test [13] was > 50 µM (inactive) throughout. Further, the GI50 is > 50 µM (inactive) in test [14]; > 50 µM (inactive) in test [15]; > 50 µM (inactive) in test [16]; 13.7 µM (inactive) in test [17]; 26.8 µM (inactive) in test [18]; > 50 µM (inactive) in test [19]. For the same molecule, the GI50 in test [20] was 14.3 µM (inactive).

Turning to `OCCOCCO[P+]1(OCCOCCO)n2c3ccc2C(c2ccccc2)=C2C=CC(=N2)C(c2ccccc2)=c2ccc(n21)=C(c1ccccc1)C1=NC(=C3c2ccccc2)C=C1`, the GI50 is 0.105 µM (active) in [1]; 0.033 µM (active) in test [2]; 0.112 µM (active) in test [3]; 0.119 µM (active) in test [4]; 0.0268 µM (active) in test [5]; 0.0736 µM (active) in test [7]. For the same molecule, the GI50 in test [8] is 1.68 µM (inactive); in test [9], 0.174 µM (active); in [10], 0.0859 µM (active); in [11] it was 7.14 µM (inactive); in test [12] it was 0.35 µM (active); in test [13] it was 8.57 µM (inactive). Also, the GI50 in test [14] was 0.11 µM (active); in [15], 0.107 µM (active); in [16], 0.076 µM (active); in test [17], 0.0261 µM (active); in test [18], 0.0235 µM (active); in test [19], 0.0314 µM (active). In addition, in test [20], the GI50 is 0.109 µM (active).

On to `O=[N+]([O-])/C(Cl)=C(/C(Cl)=C(Cl)Cl)N1CCCCC1`, for which the GI50 in test [1] was 8.49 µM (inactive); in test [2] it was 10.8 µM (inactive); in test [3], 14 µM (inactive); in test [4], 2.7 µM (inactive); in test [6] it was 11.8 µM (inactive); in test [7] it was 24 µM (inactive). Further, the GI50 in test [8] is 11.8 µM (inactive); in test [9], 4.14 µM (inactive); in test [10] it was 28.5 µM (inactive); in [11], 4.06 µM (inactive); in test [12], 16.1 µM (inactive); in [13], 18.4 µM (inactive). Moreover, the GI50 in test [14] is 14.2 µM (inactive); in [15] it was 18.8 µM (inactive); in [16], 18.7 µM (inactive); in test [17] it was 10.6 µM (inactive); in [18] it was 2.64 µM (inactive); in test [19] it was 8.34 µM (inactive). The GI50 in test [20] was 0.444 µM (active).

On to `CCOC(=O)Nc1[nH]cc(-c2ccccc2)c1C#N`, for which the GI50 in test [1], in test [2], in [3], in test [4], in test [6] and in test [7] was > 100 µM (inactive) throughout. Also, the GI50 in test [9], in test [10], in [11], in test [12], in test [13] and in test [14] was > 100 µM (inactive) throughout. Also, the GI50 in test [15], in [17], in test [18], in test [19] and in [20] was > 100 µM (inactive) in each case.

For `CC1(C)OCC(C2OC(OC(=O)c3ccc(C(F)(F)F)cc3)C3OC(C)(C)OC23)O1` (stereo not given), the GI50 in test [1] is 58.3 µM (inactive); in test [2], > 77.4 µM (inactive); in [3] it was > 77.4 µM (inactive); in [4], > 77.4 µM (inactive); in [5], > 77.4 µM (inactive); in test [6], 57.8 µM (inactive). The GI50 was 63 µM (inactive) in test [7]; > 77.4 µM (inactive) in test [8]; > 77.4 µM (inactive) in test [9]; > 77.4 µM (inactive) in [10]; 62.1 µM (inactive) in test [11]; > 77.4 µM (inactive) in [12]. The GI50 in [13] is > 77.4 µM (inactive); in test [14], > 77.4 µM (inactive); in test [15], > 77.4 µM (inactive); in [16], 49.5 µM (inactive); in test [17] it was > 77.4 µM (inactive); in [19], > 77.4 µM (inactive). Also, in [20], the GI50 is 53.3 µM (inactive).

(Values after ChEMBL document CHEMBL1201862, “PubChem BioAssay data set” (2004).)
